Measured values taken from paper PMC6120666 (The EMBO Journal, 2018).

How the values were obtained:
Assay in all cases: Drug affinity chromatography with c-ponatinib and LC-MS/MS (ponatinib interactome)
Type in all cases: binding
[1] = biological target: T1, proteins of U2OS cell lysate (Homo sapiens, UniProt P08238); details: HSP90AB1, Heat shock protein HSP 90-beta
T1 construct: Proteins enriched by c-ponatinib from U2OS cell lysate; endogenous in cells; host or cells: U2OS cell lysate
How it was run: (§1)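 U2OS cell lysate in NP-40 lysis buffer (2 mg protein per pulldown) was incubated with amine-derivatized NHS beads for 2 h at 4 °C. Bound proteins were washed, eluted with 100 mM formic acid, reduced, alkylated and trypsin-digested, then identified by nano-UPLC–MS/MS on Orbitrap instruments with a 60 min gradient.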

[2] = biological target: T2, proteins of U2OS cell lysate (Homo sapiens, UniProt P16615); details: ATP2A2, Sarcoplasmic/endoplasmic reticulum calcium ATPase 2
T2 construct: Proteins enriched by c-ponatinib from U2OS cell lysate; endogenous in cells; host or cells: U2OS cell lysate
How it was run: as §1

[3] = biological target: T3, proteins of U2OS cell lysate (Homo sapiens, UniProt Q9Y224); details: C14orf166, UPF0568 protein C14orf166
T3 construct: Proteins enriched by c-ponatinib from U2OS cell lysate; endogenous in cells; host or cells: U2OS cell lysate
How it was run: as §1

[4] = biological target: T4, proteins of U2OS cell lysate (Homo sapiens, UniProt Q01082); details: SPTBN1, Spectrin beta chain, non-erythrocytic 1
T4 construct: Proteins enriched by c-ponatinib from U2OS cell lysate; endogenous in cells; host or cells: U2OS cell lysate
How it was run: as §1

[5] = biological target: T5, proteins of U2OS cell lysate (Homo sapiens, UniProt P62906); details: RPL10A, 60S ribosomal protein L10a
T5 construct: Proteins enriched by c-ponatinib from U2OS cell lysate; endogenous in cells; host or cells: U2OS cell lysate
How it was run: as §1

[6] = biological target: T6, proteins of U2OS cell lysate (Homo sapiens, UniProt P04843); details: RPN1, Dolichyl-diphosphooligosaccharide--protein glycosyltransferase subunit 1
T6 construct: Proteins enriched by c-ponatinib from U2OS cell lysate; endogenous in cells; host or cells: U2OS cell lysate
How it was run: as §1

[7] = biological target: T7, proteins of U2OS cell lysate (Homo sapiens, UniProt P09496); details: CLTA, Clathrin light chain A
T7 construct: Proteins enriched by c-ponatinib from U2OS cell lysate; endogenous in cells; host or cells: U2OS cell lysate
How it was run: as §1

[8] = biological target: T8, proteins of U2OS cell lysate (Homo sapiens, UniProt P62820); details: RAB1A;RAB1B, Ras-related protein Rab-1A
T8 construct: Proteins enriched by c-ponatinib from U2OS cell lysate; endogenous in cells; host or cells: U2OS cell lysate
How it was run: as §1

[9] = biological target: T9, proteins of U2OS cell lysate (Homo sapiens, UniProt P40939); details: HADHA, Trifunctional enzyme subunit alpha, mitochondrial
T9 construct: Proteins enriched by c-ponatinib from U2OS cell lysate; endogenous in cells; host or cells: U2OS cell lysate
How it was run: as §1

[10] = biological target: T10, proteins of U2OS cell lysate (Homo sapiens, UniProt P27707); details: DCK, Deoxycytidine kinase
T10 construct: Proteins enriched by c-ponatinib from U2OS cell lysate; endogenous in cells; host or cells: U2OS cell lysate
How it was run: as §1

[11] = biological target: T11, proteins of U2OS cell lysate (Homo sapiens, UniProt O14980); details: XPO1, Exportin-1
T11 construct: Proteins enriched by c-ponatinib from U2OS cell lysate; endogenous in cells; host or cells: U2OS cell lysate
How it was run: as §1

[12] = biological target: T12, proteins of U2OS cell lysate (Homo sapiens, UniProt P49368); details: CCT3, T-complex protein 1 subunit gamma
T12 construct: Proteins enriched by c-ponatinib from U2OS cell lysate; endogenous in cells; host or cells: U2OS cell lysate
How it was run: as §1

[13] = biological target: T13, proteins of U2OS cell lysate (Homo sapiens, UniProt O95232); details: LUC7L3, Luc7-like protein 3
T13 construct: Proteins enriched by c-ponatinib from U2OS cell lysate; endogenous in cells; host or cells: U2OS cell lysate
How it was run: as §1

[14] = biological target: T14, proteins of U2OS cell lysate (Homo sapiens, UniProt P47914); details: RPL29, 60S ribosomal protein L29
T14 construct: Proteins enriched by c-ponatinib from U2OS cell lysate; endogenous in cells; host or cells: U2OS cell lysate
How it was run: as §1

[15] = biological target: T15, proteins of U2OS cell lysate (Homo sapiens, UniProt P47897); details: QARS, Glutamine--tRNA ligase
T15 construct: Proteins enriched by c-ponatinib from U2OS cell lysate; endogenous in cells; host or cells: U2OS cell lysate
How it was run: as §1

[16] = biological target: T16, proteins of U2OS cell lysate (Homo sapiens, UniProt O75521); details: ECI2, Enoyl-CoA delta isomerase 2, mitochondrial
T16 construct: Proteins enriched by c-ponatinib from U2OS cell lysate; endogenous in cells; host or cells: U2OS cell lysate
How it was run: as §1

[17] = biological target: T17, proteins of U2OS cell lysate (Homo sapiens, UniProt P35580); details: MYH10, Myosin-10
T17 construct: Proteins enriched by c-ponatinib from U2OS cell lysate; endogenous in cells; host or cells: U2OS cell lysate
How it was run: as §1

[18] = biological target: T18, proteins of U2OS cell lysate (Homo sapiens, UniProt P49759); details: CLK1, Dual specificity protein kinase CLK1
T18 construct: Proteins enriched by c-ponatinib from U2OS cell lysate; endogenous in cells; host or cells: U2OS cell lysate
How it was run: as §1

[19] = biological target: T19, proteins of U2OS cell lysate (Homo sapiens, UniProt P62316); details: captured protein SNRPD2, Rank 185
T19 construct: Proteins enriched by c-ponatinib from U2OS cell lysate; endogenous in cells; host or cells: U2OS cell lysate
How it was run: as §1

T3 sequence (Q9Y224 whole entry): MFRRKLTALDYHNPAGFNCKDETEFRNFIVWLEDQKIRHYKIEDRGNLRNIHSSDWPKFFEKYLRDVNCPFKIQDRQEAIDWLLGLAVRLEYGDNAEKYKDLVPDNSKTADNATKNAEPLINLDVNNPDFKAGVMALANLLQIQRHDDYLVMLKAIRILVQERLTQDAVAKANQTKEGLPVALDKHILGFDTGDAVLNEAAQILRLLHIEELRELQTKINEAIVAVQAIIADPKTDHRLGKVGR
T4 sequence (Q01082 whole entry): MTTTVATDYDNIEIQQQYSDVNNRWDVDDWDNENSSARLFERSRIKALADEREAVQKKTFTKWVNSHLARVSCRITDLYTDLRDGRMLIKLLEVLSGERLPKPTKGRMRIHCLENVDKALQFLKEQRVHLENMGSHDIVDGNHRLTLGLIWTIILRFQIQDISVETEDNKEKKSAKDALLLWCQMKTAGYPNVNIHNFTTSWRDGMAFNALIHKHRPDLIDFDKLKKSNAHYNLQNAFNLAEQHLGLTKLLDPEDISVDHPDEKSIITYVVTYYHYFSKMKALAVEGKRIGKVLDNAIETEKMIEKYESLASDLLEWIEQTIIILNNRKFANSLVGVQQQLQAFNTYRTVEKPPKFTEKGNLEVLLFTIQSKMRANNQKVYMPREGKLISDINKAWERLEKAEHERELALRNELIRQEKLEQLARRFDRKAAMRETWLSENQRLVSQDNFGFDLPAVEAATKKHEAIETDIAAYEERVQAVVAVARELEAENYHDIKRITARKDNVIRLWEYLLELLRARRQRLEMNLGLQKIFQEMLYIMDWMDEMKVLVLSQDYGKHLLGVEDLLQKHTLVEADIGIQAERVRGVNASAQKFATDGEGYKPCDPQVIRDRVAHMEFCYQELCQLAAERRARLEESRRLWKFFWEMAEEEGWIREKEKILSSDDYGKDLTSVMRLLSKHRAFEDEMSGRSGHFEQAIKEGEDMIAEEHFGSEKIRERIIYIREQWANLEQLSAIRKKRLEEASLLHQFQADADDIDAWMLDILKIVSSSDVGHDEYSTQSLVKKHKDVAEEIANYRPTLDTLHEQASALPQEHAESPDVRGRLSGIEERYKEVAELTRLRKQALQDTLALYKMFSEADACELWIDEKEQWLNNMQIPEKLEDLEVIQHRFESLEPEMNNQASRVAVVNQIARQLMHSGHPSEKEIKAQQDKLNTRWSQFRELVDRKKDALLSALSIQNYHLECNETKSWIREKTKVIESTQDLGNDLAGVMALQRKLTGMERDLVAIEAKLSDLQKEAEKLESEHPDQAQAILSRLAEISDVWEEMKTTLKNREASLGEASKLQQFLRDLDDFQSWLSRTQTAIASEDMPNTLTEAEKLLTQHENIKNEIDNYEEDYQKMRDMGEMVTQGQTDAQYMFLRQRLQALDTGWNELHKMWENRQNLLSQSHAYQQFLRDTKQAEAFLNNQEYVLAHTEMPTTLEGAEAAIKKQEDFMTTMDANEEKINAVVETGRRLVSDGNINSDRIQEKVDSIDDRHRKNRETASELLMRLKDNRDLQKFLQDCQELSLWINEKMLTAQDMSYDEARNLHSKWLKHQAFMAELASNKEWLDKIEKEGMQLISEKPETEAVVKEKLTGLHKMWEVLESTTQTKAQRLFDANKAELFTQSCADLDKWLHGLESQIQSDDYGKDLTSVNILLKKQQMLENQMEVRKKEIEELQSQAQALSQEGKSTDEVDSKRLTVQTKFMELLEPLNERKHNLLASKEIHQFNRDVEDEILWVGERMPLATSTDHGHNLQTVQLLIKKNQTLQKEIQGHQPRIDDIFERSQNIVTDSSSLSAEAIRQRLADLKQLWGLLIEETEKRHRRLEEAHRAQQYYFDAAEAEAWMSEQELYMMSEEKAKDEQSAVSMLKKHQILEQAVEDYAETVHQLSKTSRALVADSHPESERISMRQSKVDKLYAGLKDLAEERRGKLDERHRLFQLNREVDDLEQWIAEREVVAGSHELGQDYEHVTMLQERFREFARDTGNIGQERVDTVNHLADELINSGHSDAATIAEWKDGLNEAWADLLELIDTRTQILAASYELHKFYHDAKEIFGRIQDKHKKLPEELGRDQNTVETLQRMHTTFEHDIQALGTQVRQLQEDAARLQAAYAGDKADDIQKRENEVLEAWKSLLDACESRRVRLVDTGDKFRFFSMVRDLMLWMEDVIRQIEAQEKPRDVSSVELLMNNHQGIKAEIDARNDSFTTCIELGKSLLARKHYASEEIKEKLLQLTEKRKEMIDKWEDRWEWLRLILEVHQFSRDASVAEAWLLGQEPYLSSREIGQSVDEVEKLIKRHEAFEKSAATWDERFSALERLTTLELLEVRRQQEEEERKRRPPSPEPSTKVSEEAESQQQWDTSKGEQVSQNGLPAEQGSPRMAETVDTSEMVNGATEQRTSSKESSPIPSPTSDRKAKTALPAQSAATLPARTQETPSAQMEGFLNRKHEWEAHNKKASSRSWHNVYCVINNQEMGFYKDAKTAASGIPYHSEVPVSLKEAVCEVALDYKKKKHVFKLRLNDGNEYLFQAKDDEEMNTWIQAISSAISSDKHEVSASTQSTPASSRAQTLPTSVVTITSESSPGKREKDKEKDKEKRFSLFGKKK
T13 sequence (O95232 whole entry): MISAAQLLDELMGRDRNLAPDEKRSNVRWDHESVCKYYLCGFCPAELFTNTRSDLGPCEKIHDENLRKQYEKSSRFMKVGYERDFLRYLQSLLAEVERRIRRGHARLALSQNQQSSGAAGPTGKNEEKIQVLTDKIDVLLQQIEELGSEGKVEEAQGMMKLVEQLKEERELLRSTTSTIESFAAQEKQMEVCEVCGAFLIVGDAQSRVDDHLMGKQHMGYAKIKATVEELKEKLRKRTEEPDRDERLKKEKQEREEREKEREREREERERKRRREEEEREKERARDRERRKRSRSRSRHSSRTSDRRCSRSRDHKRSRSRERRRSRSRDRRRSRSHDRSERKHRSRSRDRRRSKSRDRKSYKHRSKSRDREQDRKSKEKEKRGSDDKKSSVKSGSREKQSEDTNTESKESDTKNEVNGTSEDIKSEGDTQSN
T17 sequence (P35580 whole entry): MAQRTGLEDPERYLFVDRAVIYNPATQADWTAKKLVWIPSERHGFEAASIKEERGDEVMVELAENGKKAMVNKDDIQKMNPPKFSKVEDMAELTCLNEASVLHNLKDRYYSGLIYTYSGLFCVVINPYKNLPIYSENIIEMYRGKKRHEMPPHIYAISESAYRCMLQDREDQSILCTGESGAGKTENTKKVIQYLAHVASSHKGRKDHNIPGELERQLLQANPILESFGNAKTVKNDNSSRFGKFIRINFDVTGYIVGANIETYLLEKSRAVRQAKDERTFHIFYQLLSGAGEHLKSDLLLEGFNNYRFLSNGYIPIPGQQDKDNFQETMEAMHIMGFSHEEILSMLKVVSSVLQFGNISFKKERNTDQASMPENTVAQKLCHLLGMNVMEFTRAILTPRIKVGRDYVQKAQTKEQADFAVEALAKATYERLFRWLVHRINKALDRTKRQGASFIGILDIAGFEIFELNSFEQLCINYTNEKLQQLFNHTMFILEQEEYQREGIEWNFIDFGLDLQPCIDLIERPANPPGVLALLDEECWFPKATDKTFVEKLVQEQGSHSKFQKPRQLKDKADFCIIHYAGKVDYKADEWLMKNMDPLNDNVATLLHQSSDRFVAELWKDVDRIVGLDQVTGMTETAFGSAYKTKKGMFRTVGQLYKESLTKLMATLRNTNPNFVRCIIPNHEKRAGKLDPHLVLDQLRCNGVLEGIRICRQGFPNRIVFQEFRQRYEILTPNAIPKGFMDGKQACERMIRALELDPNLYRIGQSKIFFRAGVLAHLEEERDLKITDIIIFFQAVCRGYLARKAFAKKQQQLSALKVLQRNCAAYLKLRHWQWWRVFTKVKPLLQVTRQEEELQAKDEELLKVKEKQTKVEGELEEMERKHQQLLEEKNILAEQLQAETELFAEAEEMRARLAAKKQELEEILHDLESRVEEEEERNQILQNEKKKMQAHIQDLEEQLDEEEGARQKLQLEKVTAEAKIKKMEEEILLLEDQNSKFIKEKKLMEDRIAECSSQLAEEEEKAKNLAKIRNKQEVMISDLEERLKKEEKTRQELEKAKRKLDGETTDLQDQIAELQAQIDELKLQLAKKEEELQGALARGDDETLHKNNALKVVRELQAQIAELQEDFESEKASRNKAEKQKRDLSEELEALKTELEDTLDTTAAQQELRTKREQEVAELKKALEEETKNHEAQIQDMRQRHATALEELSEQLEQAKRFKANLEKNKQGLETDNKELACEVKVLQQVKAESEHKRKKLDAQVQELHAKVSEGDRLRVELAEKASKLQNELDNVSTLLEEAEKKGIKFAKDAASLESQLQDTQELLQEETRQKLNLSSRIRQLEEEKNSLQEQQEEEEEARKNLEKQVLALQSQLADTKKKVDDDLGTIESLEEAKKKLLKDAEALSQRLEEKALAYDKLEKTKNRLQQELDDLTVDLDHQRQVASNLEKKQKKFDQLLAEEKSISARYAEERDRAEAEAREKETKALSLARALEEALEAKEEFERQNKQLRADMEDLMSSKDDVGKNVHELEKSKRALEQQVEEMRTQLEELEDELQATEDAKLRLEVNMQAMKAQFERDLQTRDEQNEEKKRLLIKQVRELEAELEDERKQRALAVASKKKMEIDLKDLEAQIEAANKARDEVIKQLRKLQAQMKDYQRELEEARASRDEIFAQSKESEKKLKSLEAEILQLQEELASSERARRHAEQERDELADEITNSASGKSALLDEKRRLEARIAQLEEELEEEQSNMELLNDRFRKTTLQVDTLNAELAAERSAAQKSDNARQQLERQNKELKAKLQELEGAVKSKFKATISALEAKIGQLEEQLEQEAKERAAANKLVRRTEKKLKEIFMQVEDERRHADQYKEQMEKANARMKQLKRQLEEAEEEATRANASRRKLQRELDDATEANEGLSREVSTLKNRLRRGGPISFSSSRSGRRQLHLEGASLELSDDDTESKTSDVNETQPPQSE

SMILES | Average LFQ PON_WT [1] | Average LFQ PON_WT [2] | Average LFQ PON_WT [3] | Average LFQ PON_WT [4] | Average LFQ PON_WT [5] | Average LFQ PON_WT [6] | Average LFQ PON_WT [7] | Average LFQ PON_WT [8] | Average LFQ PON_WT [9] | Average LFQ PON_WT [10] | Average LFQ PON_WT [11] | Average LFQ PON_WT [12] | Average LFQ PON_WT [13] | Average LFQ PON_WT [14] | Average LFQ PON_WT [15] | Average LFQ PON_WT [16] | Average LFQ PON_WT [17] | Average LFQ PON_WT [18] | Average LFQ intensity [19]
Cc1ccc(C(=O)Nc2ccc(CN3CCN(C)CC3)c(C(F)(F)F)c2)cc1C#Cc1cnc2cccnn12 [PON] | 24.5074 | 20.9825 | 20.4304 | 25.171 | 19.7018 | 23.8993 | 24.9334 | 23.3468 | 23.258 | 29.7769 | 23.5357 | 23.8873 | 20.3652 | 19.934 | 19.3053 | 24.0947 | 20.7261 | 19.0546 | 
Cc1ccc(C(=O)Nc2ccc(CN3CCN(CCCN)CC3)c(C(F)(F)F)c2)cc1C#Cc1cnc2cccnn12 [c-ponatinib, reference compound] |  |  |  |  |  |  |  |  |  |  |  |  |  |  |  |  |  |  | 22.0908
